In patent US8206983B2, “In vitro methods for the induction and maintenance of plant cell lines as single suspension cells with intact cell walls” (Dow AgroSciences, LLC., priority 2006, dated 2012):

Experiments:
[1] = tested on: JTNT1 tobacco cell suspension cultures; experiment: Single cell production, growth and viability of JTNT1 suspension with microtubule inhibitors in 24-well plates, glycerol medium; settings: for cell growth and appearance: all concentrations tested (1, 3, 10 μM)
Source text: JTNT1 Tobacco Suspension Cultures. […] Furthermore, Suc stabilizes preformed microtubules, making an examination of the effects of MTIs on preformed microtubules unfeasible. In addition, sucrose increases solution viscosity substantially, and tubulin polymerization is altered at least in part by slowed dimer and polymer diffusion rates. Thus, it was important to have low or no sucrose in medium where the single cell production. Thus, a new JTNT1 line habituated in Glycerol was developed for this study.
Each of the 24 well contained 1 ml of JTNT1 suspension. The 24-well plates were kept on an Innova 4900 Multi Environmental Shaker with special clamps and harnesses to allow stacking of plates up to 6 plates high. The plates were rotated at a speed of 130 rpm and 25° C. in dark.
Single Cell Production. Each compound was dissolved in dimethyl sulfoxide (DMSO) to provide 0.5 Molar stock solutions. One ml of JTNT1 suspension (1 ml PCV/20 ml tobacco media) was added to each well of the 24 well plates. To each well an individual chemical was added to achieve the desired concentrations (at 1 μM, 3 μM, and 10 μM). The cultures were allowed to grow for 7 days on the Innova Shaker. Each day turbidity measurements was taken on each well using a SpectraMax M2^e by Molecular devices (set at 600 absorbance, with 5 readings taken per well). On day 7, cells were observed using the Leica 5000 inverted confocal microscope for formation of single cells and cell viability.

JTNT1 single cells = experiment: Cytological characterization of JTNT1 single cells (nucleus, cell wall); type: cell-based, tobacco
Protocol: JTNT1 Tobacco single cell initiation and sample collection. JTNT1 Tobacco single cells were initiated in two different media, NT1B with 3% sucrose (NT1B-Suc) and NT1B with 3% glycerol (NT1B-Gly) in 3.5 day culture cycle. […] The flasks were closed with a foam stopper and cultured on a orbital shaker at 130 rpm in dark at 25-28° C. The cultures were sub cultured every 3.5 days up to a period of 14 days. Four samples (Suc/Gly grown cells and the control cultures in Suc/Gly media with 0.2% DMSO) of the cultures were harvested every 3.5 days by spinning the suspension at 3000 rpm for 5 minutes. The samples were immediately lyophilized to prevent any cell oxidation to minimize any deleterious effect on the samples introduced post harvest. Single cells were stained with Hoechst nuclear stain for an hour and observed under scopes for any nuclear anomaly up to two culture cycles.
Cell viability and Cell wall. Established JTNT1 single cells were used to stain with FUN1 (F-7030, Molecular Probes, Invitrogen Inc) cell stain which is used for viability test in yeast, and this contains two color fluorescent probes. The third one, Calcofluor White M2R which stains cell wall, was used to stain the cells. For JTNT1 single cells, […] of FUN1 stain is added and the culture was incubated at room temperature for 20 mins 1 mL fresh culture media was added to wash the excess stain and centrifuged at 3000 rpm; the supernantant was discarded. The cells were examined and imaged on Zeiss ApoTome microscope.
Nucleus. Single cells were stained with Hoechst nuclear stain for an hour and observed on Zeiss Apo Tome for any nuclear anomaly up to two culture cycles. Crystal violet stain was also used as a live nuclear stain for observing nuclear structure for ploidy characterization

plant tubulin = settings: 1 M Sucrose; cited from earlier work
JTNT1 cells = experiment: Plasma membrane staining of single cells with FM4-64; type: cell-based, tobacco; settings: 100 nM
Protocol: Plasmamembrane. JTNT1 cells were incubated with 5 μm FM4-64 (styryl dye) for 5 minutes and washed with fresh media. The culture was centrifuged at 3000 rpm, and fresh media was added. The cells were visualized on Zeiss ApoTome microscope.

## COc1ccc([C@H]2CC=CC[C@@H]2[N+](=O)[O-])c(OC)c1OC (racemic) [trimethoxyphenylcyclohexene, (±)-4S,5R-4-nitro-5-(2,3,4-trimethoxyphenyl)-cyclohexene]
[1]
  bleaching of cells: mild bleaching
  cell growth and appearance: grew very well
[1]; 1 μM, 3 μM, and 10 μM
  single cell formation: promoted the formation of single cells
[1]; across all levels (1 μM, 3 μM, 10 μM)
  cell viability: 80-90%
JTNT1 single cells; 1 uM, 3.5 d cultures
  nuclear organization of single cells: single nucleus
JTNT1 single cells; 14 days of continuous treatments
  nuclear ploidy: low or no nuclear ploidy percentage

## COP(=S)(NC(C)C)Oc1ccc(C)cc1[N+](=O)[O-] (stereo not drawn) [APM, Amiprophosmethyl]
[1]
  concentration at which single cells were formed: 1 to 10 µM
[1]; 1 μM and 3 μM
  cell growth: grew well
[1]; above 1-10 μM
  effect at higher concentration: remarkable reduction of growth and cell division inhibition
[1]; tobacco, 7 days
  cell viability (Fluorescein diacetate and Propidium Iodine stains): up to 70%
Plant tubulin
  effect on plant microtubule length: concentration-dependent decrease in plant microtubule length

## CSC(=O)c1c(C(F)F)nc(C(F)(F)F)c(C(=O)SC)c1CC(C)C [Dithiopyr]
[1]; 1 μM and 3 μM
  single cell formation: single cells were formed
[1]; 10 μM
  single cell formation: the concentration of the cells was low
[1]
  cell growth and appearance: healthy, growing and yellow in color

## CCC(C)(CC)c1cc(NC(=O)c2c(OC)cccc2OC)on1 [Isoxeben]
JTNT1 cells
  FM4-64 staining of single cells: extensive vesicle on the surface
